Legend:
[1] = logP; cited from earlier work
[2] = Volatilization rate of organic solvents (Table 2); format: physicochemical

Row | volatilization rate (%) [2] [%] | Compound | partition coefficient [1]
1 |  | C1COCCO1 [1,4-dioxane] | −0.271
2 | 1 | CCCCC(CC)COCCO (stereo not shown) [2-(2-ethylhexyloxy)ethanol] | 
3 | 0 | CCCCC(CC)COCCOCCO (stereo not shown) [2-[2-(2-ethylhexyloxy)ethoxy]ethanol] | 
4 | 0 | CCCC(O)C(CC)CO (stereo not shown) [2-ethyl-1,3-hexanediol] | 
5 | 3 | CC(O)CC(C)(C)O (stereo not shown) [2-methyl-2,4-pentanediol] | 
6 | 0 | CC(CCO)CCO [3-methyl-1,5-pentanediol] | 
7 |  | CO [Methanol] | −0.719
8 |  | CC(C)=O [acetone] | −0.157
9 | 0 | OCC(O)CO [glycerin] | 

Row | Compound | volatilization rate (%) [2] [%] | partition coefficient [1]
10 | OCCO [ethylene glycol] | 0 | 
